Measurements from patent US11629145B2, “SHP2 phosphatase inhibitors and methods of use thereof” (Relay Therapeutics, Inc., priority 2016, dated 2023).
pIC50: −log10 of the molar value.

Target: SHP2 (Homo sapiens (Human), UniProt Q06124)
Assay: SHP2 Allosteric Inhibition Assay
Format: biochemical
Details: 0.25 nM SHP2 activated with 0.5 μM bis-phosphorylated IRS1 peptide; DiFMUP substrate, prompt fluorescence

SHP2, sequence (Q06124 whole entry): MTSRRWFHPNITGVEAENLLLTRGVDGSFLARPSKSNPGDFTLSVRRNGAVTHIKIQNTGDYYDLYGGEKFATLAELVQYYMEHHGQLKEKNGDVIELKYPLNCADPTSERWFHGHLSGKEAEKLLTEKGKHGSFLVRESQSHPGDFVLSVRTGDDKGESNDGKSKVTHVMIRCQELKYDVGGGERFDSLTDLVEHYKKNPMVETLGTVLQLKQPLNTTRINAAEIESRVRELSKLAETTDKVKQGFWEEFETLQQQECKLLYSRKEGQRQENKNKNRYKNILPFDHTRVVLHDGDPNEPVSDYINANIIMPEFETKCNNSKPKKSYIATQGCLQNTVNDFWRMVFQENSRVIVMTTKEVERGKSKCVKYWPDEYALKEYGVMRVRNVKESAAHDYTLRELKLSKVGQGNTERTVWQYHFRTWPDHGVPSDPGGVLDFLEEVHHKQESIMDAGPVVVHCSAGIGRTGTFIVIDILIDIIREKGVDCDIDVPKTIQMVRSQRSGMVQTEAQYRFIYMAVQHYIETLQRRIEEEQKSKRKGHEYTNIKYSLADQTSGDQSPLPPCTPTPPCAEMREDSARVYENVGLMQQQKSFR

SMILES | pIC50
CC1(N)CCN(c2cnc3c(Oc4ccccc4)n[nH]c3n2)CC1 [Compound 20] | > 6.00
CC1(N)CCN(c2cnc3c(OC4CCCNC4)n[nH]c3n2)CC1 (stereo not drawn) [Compound 21] | ≤ 5.00
CC1(N)CCN(c2cnc3c(OCc4ccccc4)n[nH]c3n2)CC1 [Compound 22] | > 6.00
Cc1cc(Oc2n[nH]c3nc(N4CCC(C)(N)CC4)cnc23)ccn1 [Compound 23] | > 6.00
Cc1cnccc1Oc1n[nH]c2nc(N3CCC(C)(N)CC3)cnc12 [Compound 24] | > 6.00
CC1(N)CCN(c2cnc3c(OCc4cccnc4)n[nH]c3n2)CC1 [Compound 25] | 5.00 to 6.00
CC1(N)CCN(c2cnc3c(Oc4ccccc4C#N)n[nH]c3n2)CC1 [Compound 26] | > 6.00
CC1(N)CCN(c2cnc3c(Oc4ncccc4C#N)n[nH]c3n2)CC1 [Compound 27] | > 6.00
CC(Oc1n[nH]c2nc(N3CCC(C)(N)CC3)cnc12)c1ccccc1 (stereo not drawn) [Compound 28] | > 6.00
Cc1nccc(Oc2n[nH]c3nc(N4CCC(C)(N)CC4)cnc23)c1C [Compound 29] | > 6.00
CC1(N)CCN(c2cnc3c(OCc4cccnc4N)n[nH]c3n2)CC1 [Compound 30] | > 6.00
CC1(N)CCN(c2cnc3c(Oc4ccccc4Cl)n[nH]c3n2)CC1 [Compound 31] | > 6.00
CC1(N)CCN(c2cnc3c(Oc4ccncc4Cl)n[nH]c3n2)CC1 [Compound 32] | > 6.00
CC1(N)CCN(c2cnc3c(OCc4ccccc4C#N)n[nH]c3n2)CC1 [Compound 33] | > 6.00
CC1(N)CCN(c2cnc3c(Oc4ccc(N)cc4C#N)n[nH]c3n2)CC1 [Compound 34] | > 6.00
CC(=O)N1CCCC(Oc2n[nH]c3nc(N4CCC(C)(N)CC4)cnc23)C1 (stereo not drawn) [Compound 35] | 5.00 to 6.00
CC1(N)CCN(c2cnc3c(Oc4ccc(N)cc4Cl)n[nH]c3n2)CC1 [Compound 36] | > 6.00
Cc1cc(Oc2n[nH]c3nc(N4CCC(C)(N)CC4)cnc23)c(Cl)cn1 [Compound 37] | > 6.00
Cc1nccc(Oc2n[nH]c3nc(N4CC[C@@H](N)C[C@@H]4C)cnc23)c1Cl [Compound 38] | > 6.00
Cc1nccc(Oc2n[nH]c3nc(N4CCC(C)(N)CC4)cnc23)c1Cl [Compound 39] | > 6.00
CC1(N)CCN(c2cnc3c(OCc4ccncc4Cl)n[nH]c3n2)CC1 [Compound 40] | > 6.00
CC1(N)CCN(c2cnc3c(Oc4cc(N)ncc4Cl)n[nH]c3n2)CC1 [Compound 42] | > 6.00
CC1(CN)CCN(c2cnc3c(Oc4ccnc(N)c4Cl)n[nH]c3n2)C1 (stereo not drawn) [Compound 43] | > 6.00

SMILES | pIC50
CC1(N)CCN(c2cnc3c(Oc4cccc(C(F)F)n4)n[nH]c3n2)CC1 [Compound 44] | 5.00 to 6.00
CC1(N)CCN(c2cnc3c(Oc4ccnc(O)c4Cl)n[nH]c3n2)CC1 [Compound 45] | > 6.00
CC1(N)CCN(c2cnc3c(OCc4cccc5[nH]ccc45)n[nH]c3n2)CC1 [Compound 46] | > 6.00
COc1nccc(Oc2n[nH]c3nc(N4CCC(C)(N)CC4)cnc23)c1C#N [Compound 47] | > 6.00
CC1(CN)CCN(c2cnc3c(Oc4ccnc(N)c4Cl)n[nH]c3n2)CC1 [Compound 48] | > 6.00
Cc1nccc(Oc2n[nH]c3nc(N4CCC(O)(CN)CC4)cnc23)c1Cl [Compound 49] | > 6.00
COc1nccc(Oc2n[nH]c3nc(N4CCC(C)(N)CC4)cnc23)c1Cl [Compound 50] | > 6.00
CC1(N)CCN(c2cnc3c(Oc4ccncc4C(F)(F)F)n[nH]c3n2)CC1 [Compound 51] | > 6.00
CC1(CN)CCN(c2cnc3c(Oc4ccnc(Cl)c4Cl)n[nH]c3n2)C1 (stereo not drawn) [Compound 52] | > 6.00
C[C@H]1C[C@H](N)CCN1c1cnc2c(Oc3ccnc(Cl)c3Cl)n[nH]c2n1 [Compound 53] | > 6.00
CC1(N)CCN(c2cnc3c(Oc4ccnc(Cl)c4Cl)n[nH]c3n2)CC1 [Compound 54] | > 6.00
CC1(N)CCN(c2cnc3c(Oc4ccnc(C(N)=O)c4Cl)n[nH]c3n2)CC1 [Compound 55] | > 6.00
CC1(CN)CCN(c2cnc3c(Oc4ccnc(Cl)c4Cl)n[nH]c3n2)CC1 [Compound 56] | > 6.00
NCC1(O)CCN(c2cnc3c(Oc4ccnc(Cl)c4Cl)n[nH]c3n2)CC1 [Compound 57] | > 6.00
CC1(N)CCN(c2cnc3c(Oc4ccnc(NC5COC5)c4Cl)n[nH]c3n2)CC1 [Compound 58] | 5.00 to 6.00
CC1(N)CCN(c2cnc3c(Oc4cc(Br)ncc4Cl)n[nH]c3n2)CC1 [Compound 59] | > 6.00
Cn1cc(-c2nccc(Oc3n[nH]c4nc(N5CCC(C)(N)CC5)cnc34)c2Cl)cn1 [Compound 60] | > 6.00
CC1(N)CCN(c2cnc3c(Oc4ccnc(-c5nccs5)c4Cl)n[nH]c3n2)CC1 [Compound 61] | > 6.00
CC1(N)CCN(c2cnc3c(Oc4ccnc(N5CCOCC5)c4Cl)n[nH]c3n2)CC1 [Compound 62] | > 6.00
COc1ccc(Cn2nc(Oc3ccnc(Cl)c3Cl)c3ncc(N4CC[C@@H](N)C[C@@H]4C)nc32)cc1 [Compound 63] | ≤ 5.00
COc1ccc(Cn2nc(Oc3ccnc(Cl)c3Cl)c3ncc(N4CCC(O)(CN)CC4)nc32)cc1 [Compound 64] | ≤ 5.00
CC1(N)CCN(c2cnc3c(N4CCCCc5ccccc54)n[nH]c3n2)CC1 [Compound 82] | > 6.00
